In patent publication US20040247674A1, “Drug delivery system” (priority 2001, published 2004):

Assay: release rates of active agents from core-membrane implants
Type: physicochemical
Conditions: for release rate over time: Example 4 implant (FIG. 12): membrane PDMS/trifluoropropyl modified PDMS, fluoro-content 55 wt-%, thickness 0.25 mm
Text: The implant structure was as disclosed in FIG. 2. The first part of the core consisted of PDMS comprising levonorgestrel and the length was 35 mm. The second part of the core consisted of PEO-PDMS having 50% of PEO, comprising estradiol, and the length was 8 mm.
The core parts were encased in a membrane consisting of PEO-PDMS in a ratio of 10:90. The thickness of the membrane was 0.2 mm and the outer diameter of the implant 2.48 mm.
The implant structure was as disclosed in FIG. 2. The first part of the core consisted of PEO-PDMS in a ratio of 50:50 comprising compound 1 and the length was 34 mm. The second part of the core consisted of PEO-PDMS having 50% of PEO, comprising estradiol, and the length was 6 mm.
The core parts were encased in a membrane consisting of PEO-PDMS in a ratio of 20:80. The thickness of the membrane was 0.2 mm and the outer diameter of the implant 2.48 mm.
The implant structure was as disclosed in FIG. 2. The first part of the core consisted of Pt-catalysed PDMS comprising 60 weight-% MENT having a length of 44 mm and a diameter of 3.0 mm. The second part of the core consisted of peroxide-catalysed PDMS comprising 50 weight-% gestodene having a length of 12 mm and a diameter of 3.0 mm.
Both core parts were encapsulated by a membrane consisting of a mixture of PDMS and trifluoropropyl modified PDMS. The fluoro-content in the membrane varied from 55 weight-% to 75 weight-%. The thickness of the membrane was 0.25 or 0.35 mm and thus the outer diameter of the implant 3.5 or 3.7 mm, respectively.
MENT is represented by the trinagles and gestodene by the lozenges.

Row | SMILES | release rate over time | release rate of compound 1 versus target (Example 2 implant (FIG. 10): PEO-PDMS 50:50 core part 34 mm, membrane PEO-PDMS 20:80, 0.2 mm, target 50 μg/day) | release rate of gestodene, membrane thickness 0.25 mm compared with 0.35 mm (Example 4 implant (FIG. 14): membrane fluoro-content 60 wt-%)
1 | C[C@@H]1CC2=CC(=O)CC[C@@H]2[C@H]2CC[C@]3(C)[C@@H](O)CC[C@H]3[C@@H]21 [MENT, 7-α-methyl-19-nortestosterone] | essentially constant over time |  | 
2 | CC(=O)c1ccc(C2C[C@@]3(C)[C@@H](CCC3(O)C(F)(F)C(F)(F)F)[C@@H]3CCC4=CC(=O)CCC4=C23)cc1 (stereo partly shown) [compound 1, 11-(4-Acetylphenyl)-17-hydroxy-17-(1,1,2,2,2-pentafluoroethyl)estra-4,9-dien-3-one] |  | target release rates were obtained | 
3 | C#C[C@]1(O)C=C[C@H]2[C@@H]3CCC4=CC(=O)CC[C@@H]4[C@H]3CC[C@@]21CC [gestodene] | essentially constant over time |  | higher
